Test results from patent US10253002B2, “Compounds and methods of treating infections” (Neoculi Pty Ltd., priority 2013, dated 2019).
Where two headings read alike, the source gives them in different places.

Experiments:
S. pneumoniae strain D39 [1] = test: Micro-broth dilution time kill studies; type: cell-based, Streptococcus pneumoniae; settings: D39 treated with 54 μg/mL NCL812
E. faecalis USA01 = test: Kill kinetics assay, Example 8; type: cell-based, Enterococcus faecalis
Description: (§1) S. aureus KC01 and E. faecalis USA01, not determined to be MRSA or VRE, respectively, were grown overnight on Columbia SBA at 37° C. A few colonies of bacteria were then suspended in CAMHB (cation-adjusted Mueller Hinton broth) and adjusted to OD600 of 0.08 to 0.10. The bacterial suspension was diluted 1:10. […] The tubes were incubated at 37° C., with constant shaking. In order to determine the number of viable bacteria present at various time points, a 100 μL aliquot was removed from each tube and diluted. Then, 100 μL of each dilution were spread onto colony count agar, in duplicate, and incubated for 48 h at 37° C. After 24 h the numbers of colonies present on each plate were counted and therefore the number of viable bacteria present in the original suspension enumerated. Plates were re-checked after 48 hours.

Staphylococcus aureus = test: Mouse skin wound infection model, topical treatment; type: in vivo, mice; settings: 14 treatments
Text: Preliminary studies prior to the conduct of the current study established a new method of skin infection arising from a detailed study of the models mentioned above. Briefly, study mice are anaesthetised, a patch of dorsal skin is clipped to reveal the skin and a circular area of skin is removed with a hand held punch, leaving a wound on the dorsum with a central cavity. The wound is infected with a known number of the challenge organism. Approximately four to six hours after infection, the wound is either treated topically with a vehicle formulation or an active formulation. The infected skin wound is retreated every 12 hours for a total of 14 treatments. Mice are humanely euthanased, the area of the original infected wound is dissected and removed and its bacterial content quantified by standard microbiologic tests. In this way, the change in bacterial concentration due to treatment with the active formulation can be readily determined by examining the reduction in bacterial burden compared with the vehicle control. Fresh cultures of bacteria (Staphylococcus aureus) were grown on Sheep Blood Agar at 37° C. for 16-18 hours. A few typical colonies were selected and suspended in 10 ml of Tryptic Soy Broth and incubated overnight in a shaking incubator (240 rpm) at 37° C. The overnight suspension was vortexed and diluted (1:100) in fresh Tryptic soy broth (100 μl [0.1 ml] in 9.9 ml broth). The fresh suspension was incubated for 3 hours in a shaking incubator (as above) in order to obtain mid-logarithmic phase bacteria. Bacteria were pelleted through centrifugation at 7,500 rpm for 10 mins. Broth supernatant was removed and bacteria suspended in 10 ml Phosphate Buffered Saline (PBS). These steps were repeated a further two times. The density of the suspension was checked by measuring absorbance at 600 nm, using a spectrophotometer with saline as a blank, to confirm the target density at a reading of approximately 0.100, consistent with a bacterial density of 2.5×10^7 CFU/ml. The suspension was placed into a rack placed into a lockable transport box with an ice brick to maintain refrigeration during transport, followed by storage in cool room upon arrival at the mouse skin infection laboratory. Final suspension was mixed thoroughly before inoculating the skin wounds created in mice. […] Eyes of each anaesthetised mouse were covered with veterinary eye lubricant in order to prevent corneal dehydration. Each mouse removed from induction chamber and placed onto surgical area, in front of individual aesthetic nose cone. While under anaesthesia each mouse was monitored for assessment of depth of anaesthesia (response to pain, blink reflex, skeletal muscle tone) and respiratory and cardiac function. Back skin hair was shaved from surgical area with mechanical clippers. […] Once the iodine solution was dry, a subcutaneous injection of the nonsteroidal anti-inflammatory agent meloxicam was administered. Dorsal skin was pinched gently to allow creation of a circular full-thickness wound using ear punch/biopsy punch. […] Once the bacterial suspension was dry, mice were placed into individual recovery boxes labelled with the mouse number. The time of inoculation was recorded. Initial body weights of each mouse were recorded on the appropriate score sheet. Mice recovered to full consciousness within 5 minutes. Recovered mice were returned to individual housing and monitored hourly for post-surgical or anaesthetic complications. […] Each ointment container was weighted prior to administration and the weight recorded. Each mouse was carefully restrained. […] The weight of the ointment container post-administration was recorded. […] At the end of the 7 day skin wound assessment period, all test mice were euthanased prior to wound collection for post mortem examination. The skin wound was dissected from the dorsum of each mouse. The sample was placed in a sample tube and weighed before 1 ml PBS and sterile tissue homogenisation beads were added. […]

[2] = Visual analysis of solubility in diluents and media, Example 5; type: physicochemical
[3] = system: methicillin-susceptible S. aureus ATCC 49775; test: Time-kill assays (microdilution and 10 ml macrodilution), Example 4; type: cell-based, Staphylococcus aureus
Description: Bactericidal activity in macrodilution assays was identified as a 3 log10 decrease from the initial inoculum size. Bacteria were cultured overnight at 37° C. on SBA. Colonies were suspended in broth and the turbidity was adjusted to a 0.5 McFarland standard to obtain a bacterial suspension of […]. Bacterial suspensions were incubated at 37° C. with shaking. Aliquots were removed at 0, 1, 2, 4, 8, 12, and 24 h after antimicrobial addition, diluted, plated onto SBA and incubated for 48 h at 37° C. for viable count determination. Turbidimetric growth curves for S. aureus were obtained for Microtiter plate assays by monitoring optical density changes using a Bio-Rad Benchmark Plus microplate spectrophotometer at 600 nm. Optical densities were measured at 0, 1, 2, 4, 8, 12, and 24 h after antimicrobial addition.

S. aureus KC01 = test: Kill kinetics assay, Example 8; type: cell-based, Staphylococcus aureus
Description: as §1

Streptococcus pneumoniae = settings: control strain Streptococcus pneumoniae ATCC 49619; cited from earlier work
S. pneumoniae strain D39 [4] = test: microbe, parasite or virus in culture; type: cell-based; settings: Streptococcus pneumoniae
Description: Macro-broth dilutions were prepared as above. […] Samples were centrifuged at a relative centrifugal force (RCF) of 101.45×g for 10 min and washed in 50 mL of phosphate buffered saline (PBS) twice to remove any residual antimicrobial, and/or bacterial end products and media. Washed bacteria were resuspended and MICs were performed.

Structure (SMILES): N=C(N/N=C/c1ccc(Cl)cc1)N/N=C/c1ccc(Cl)cc1 [NCL812, 1,3-bis[(E)-(4-chlorophenyl)methyleneamino]guanidine]
- time at which treated D39 entered a log phase of growth (S. pneumoniae strain D39 [1]): 6 h
- rise in bacterial numbers (E. faecalis USA01; 32 and 64 μg/mL, until the 6 h time point): ~1 log10
- reduction in CFU/mL compared to the growth control (E. faecalis USA01; 2 h): 2 log10
- reduction in CFU/mL compared to the original bacterial numbers (E. faecalis USA01; 2 h): greater than 1 log10
- bacterial numbers versus growth control (E. faecalis USA01; at 24 h, all concentrations): increased to almost the same level as the growth control
- mean colony count per g of tissue, log10 (Staphylococcus aureus; mice, Formulation B 20 mg/g topically every 12 hours, vehicle 6.77): 5.15 log10
- mean colony count per g of tissue (Staphylococcus aureus; mice, Formulation B 20 mg/g topically every 12 hours, vehicle 5,888,436): 141,254
- % reduction (of colony forming units per gram of tissue versus vehicle) (Staphylococcus aureus; mouse skin wound infected with Staphylococcus aureus, topical ointment (Formulation B, 20 mg/g) every 12 hours, end of 7 day period, relative to vehicle group): 97.6%
- Log10 (CFU/g): colony forming units per gram of tissue (Staphylococcus aureus; mouse skin wound infected with Staphylococcus aureus, topical ointment (Formulation B, 20 mg/g) every 12 hours, wound tissue at end of 7 day period, group mean): 5.15 Log10 (CFU/g)
- Visual analysis of solubility ([2]; Diluent CAMHB): Turbid
- Visual analysis of solubility ([2]; Diluent DMSO): Transparent
- Visual analysis of solubility ([2]; Diluent PBS): Precipitate
- Visual analysis of solubility ([2]; Media 4% LHB:CAMHB): Turbid
- Visual analysis of solubility ([2]; Media 10% horse serum-supplemented broth): Precipitate
- bacterial growth, turbidimetric growth curve ([3]; ATCC 49775, 1× and 4× the MIC, microdilution, up to 24 h): no visible bacterial growth
- remained bactericidal until (then regrowth) ([3]; ATCC 49775, 10 mL macrodilution, 1× and 4× the MIC): 8 to 12 h
- bacterial regrowth observed at, after antimicrobial addition ([3]; ATCC 49775 time-kill): 12 h
- reduction in bacterial numbers from initial numbers (S. aureus KC01; 2 h): ≥ 2.5 log10
- reduction in comparison to the control at the same time point (S. aureus KC01; 2 h): > 3 log10
- reduction in bacterial numbers (S. aureus KC01; 6 h incubation): ≥ 2 log10
- numbers of bacteria versus control (S. aureus KC01; after 24 h): not significantly different to the control

Structure (SMILES): CC1(C)S[C@@H]2[C@H](NC(=O)[C@H](N)c3ccccc3)C(=O)N2[C@H]1C(=O)O [Ampicillin]
- Acceptable MIC range for Ampicillin (Streptococcus pneumoniae): 0.06 to 0.25 µg/mL
- MBC (S. pneumoniae strain D39 [4]; D39, 6 h, read-out: MBC of D39 following exposure to NCL-812 for 6 hrs): 0.023 µg/mL
- MIC (S. pneumoniae strain D39 [4]; D39, 6 h, read-out: MIC of D39 following exposure to NCL-812 for 6 hrs.): 0.045 µg/mL
- MBC (S. pneumoniae strain D39 [4]; D39, read-out: Original MBC of D39): 0.023 µg/mL
- MIC (S. pneumoniae strain D39 [4]; D39, read-out: Original MIC of D39): 0.023 µg/mL
